From ChEMBL document CHEMBL1255348, “Susceptibility testing of anidulafungin and voriconazole alone and in combination against conidia and hyphae of Aspergillus spp. under hypoxic conditions” (2008) come the findings set out here.

SMILES strings stand for the structures. Values after ≈ are worked out from the molar mass of the structure shown. *1 amine or outer side, *2 acyl side, *3 side chain or, on linkers, in order; H or OH if unused. Where a SMILES comes first, the peptide text is derived from it. Bridges are numbered along the chain shown (N, C = ends). [ ]: non-standard residue; d: D form. The star is where a group is joined. pTerphenylCO(4''-OnC5H11) = CCCCCOc1ccc(-c2ccc(-c3ccc(C(=O)*)cc3)cc2)cc1; Orn(4R-OH,5R-OH) = O=C([C@H](C[C@@H](O)[C@@H](O)N[*:3])N[*:1])[*:2]; hTyr(3S-OH,4S-OH) = N[C@H](C(=O)O)[C@H](O)[C@@H](O)c1ccc(O)cc1; Pro(3S-OH,4S-Me) = C[C@H]1CN[C@H](C(=O)O)[C@H]1O; Hyp = O=C(O)[C@@H]1C[C@@H](O)CN1

Type in all cases: functional
In assay [1] the test system is Aspergillus terreus. The experiment in a line: Antimicrobial activity against Aspergillus terreus conidia isolated from aspergillosis patient after 48 hrs under hypoxic condition by broth microdilution method.
Assay [2] has as its system Aspergillus fumigatus. Description: Antimicrobial activity against Aspergillus fumigatus hyphae isolated from aspergillosis patient after 48 hrs under hypoxic condition by broth microdilution method.
The test system of assay [3] is Aspergillus terreus. Description: Antimicrobial activity against Aspergillus terreus hyphae isolated from aspergillosis patient after 48 hrs under hypoxic condition by broth microdilution method in presence of voriconazole.
Assay [4] concerns Aspergillus terreus. The experiment in a line: Antimicrobial activity against Aspergillus terreus conidia isolated from aspergillosis patient after 48 hrs under hypoxic condition by broth microdilution method in presence of voriconazole.
For assay [5], the system named is Aspergillus fumigatus. The experiment in a line: Antimicrobial activity against Aspergillus fumigatus conidia isolated from aspergillosis patient after 48 hrs under hypoxic condition by broth microdilution method in presence of voriconazole.
Assay [6] has as its system Aspergillus terreus. The experiment in a line: Antimicrobial activity against Aspergillus terreus hyphae isolated from aspergillosis patient after 48 hrs under hypoxic condition by broth microdilution method.
The test system of assay [7] is Aspergillus niger. Description: Antimicrobial activity against Aspergillus niger hyphae isolated from aspergillosis patient after 48 hrs under hypoxic condition by broth microdilution method.
The test system of assay [8] is Aspergillus fumigatus. The experiment in a line: Antimicrobial activity against Aspergillus fumigatus conidia isolated from aspergillosis patient after 48 hrs under hypoxic condition by broth microdilution method.
Assay [9] concerns Aspergillus flavus. The experiment in a line: Antimicrobial activity against Aspergillus flavus conidia isolated from aspergillosis patient after 48 hrs under hypoxic condition by broth microdilution method.
Assay [10] has as its system Aspergillus flavus. Description: Antimicrobial activity against Aspergillus flavus conidia isolated from aspergillosis patient after 48 hrs under hypoxic condition by broth microdilution method in presence of voriconazole.
In assay [11] the test system is Aspergillus flavus. Description: Antimicrobial activity against Aspergillus flavus hyphae isolated from aspergillosis patient after 48 hrs under hypoxic condition by broth microdilution method.
Assay [12] deals with Aspergillus niger. Description: Antimicrobial activity against Aspergillus niger hyphae isolated from aspergillosis patient after 48 hrs under hypoxic condition by broth microdilution method in presence of voriconazole.
Assay [13] deals with Aspergillus niger. Description: Antimicrobial activity against Aspergillus niger conidia isolated from aspergillosis patient after 48 hrs under hypoxic condition by broth microdilution method in presence of voriconazole.
The test system of assay [14] is Aspergillus niger. Description: Antimicrobial activity against Aspergillus niger conidia isolated from aspergillosis patient after 48 hrs under hypoxic condition by broth microdilution method.
For assay [15], the system named is Aspergillus flavus. Description: Antimicrobial activity against Aspergillus flavus hyphae isolated from aspergillosis patient after 48 hrs under hypoxic condition by broth microdilution method in presence of voriconazole.
Assay [16] has as its system Aspergillus fumigatus. The experiment in a line: Antimicrobial activity against Aspergillus fumigatus hyphae isolated from aspergillosis patient after 48 hrs under hypoxic condition by broth microdilution method in presence of voriconazole.

As for `CCCCCOc1ccc(-c2ccc(-c3ccc(C(=O)N[C@H]4C[C@@H](O)[C@@H](O)NC(=O)[C@@H]5[C@@H](O)[C@@H](C)CN5C(=O)[C@H]([C@@H](C)O)NC(=O)[C@H]([C@H](O)[C@@H](O)c5ccc(O)cc5)NC(=O)[C@@H]5C[C@@H](O)CN5C(=O)[C@H]([C@@H](C)O)NC4=O)cc3)cc2)cc1` [ANIDULAFUNGIN] ({pTerphenylCO(4''-OnC5H11)}-[Orn(4R-OH,5R-OH)]T[Hyp][hTyr(3S-OH,4S-OH)]T[Pro(3S-OH,4S-Me)]; lactam 1-C), the minimal inhibitory concentration (MIC) in assay [1] is 0.01 mg/L (≈ 0.00877 µM); in assay [2], 0.03 mg/L (≈ 0.0263 µM); in [6], 0.01 mg/L (≈ 0.00877 µM); in assay [7], 0.01 mg/L (≈ 0.00877 µM); in assay [8], 0.01 mg/L (≈ 0.00877 µM); in assay [9], 0.06 mg/L (≈ 0.0526 µM). Besides, the MIC was found to be 0.03 mg/L (≈ 0.0263 µM) in assay [11] and 0.008 mg/L (≈ 0.00702 µM) in assay [14]. In addition, the “fractional inhibitory concentration index (FICI)” value in assay [3] was determined as 0.8; in [4], 0.9; in [5] it was 0.7; in assay [10], 0.7; in assay [12], 0.7; in [13], 0.5. Further, the “fractional inhibitory concentration index (FICI)” value in [15] and in assay [16] was 1 each time.

For the molecule `C[C@@H](c1ncncc1F)[C@](O)(Cn1cncn1)c1ccc(F)cc1F` [VORICONAZOLE], the minimal inhibitory concentration (MIC) in assay [1] stood at 1 mg/L (≈ 2.86 µM); in assay [2], 1 mg/L (≈ 2.86 µM); in assay [6], 1 mg/L (≈ 2.86 µM); in assay [7], 1 mg/L (≈ 2.86 µM); in assay [8] it was 0.5 mg/L (≈ 1.43 µM); in assay [9], 1 mg/L (≈ 2.86 µM). Moreover, the MIC in [11] was determined as 2 mg/L (≈ 5.73 µM); in [14] it was 1 mg/L (≈ 2.86 µM).
